Results published in ChEMBL document CHEMBL4699433, “Rational design, synthesis and testing of novel tricyclic topoisomerase inhibitors for the treatment of bacterial infections part 2” (RSC Med Chem, 2020).
Converted amounts (≈) assume the structure as drawn.

What was measured:
Streptococcus pneumoniae = assay: Antibacterial activity against Streptococcus pneumoniae ATCC 49619 assessed as reduction in bacterial growth by CLSI based broth microdilution method; type: functional
Escherichia coli = assay: Antibacterial activity against Escherichia coli ATCC 25922 assessed as reduction in bacterial growth by CLSI based broth microdilution method; type: functional
[1] = Thermodynamic solubility of the compound; type: physicochemical; conditions: read-out: Therm_solubility
Staphylococcus aureus = assay: Antibacterial activity against wild type methicillin-sensitive Staphylococcus aureus ATCC 29213 assessed as reduction in bacterial growth by CLSI based broth microdilution method; type: functional
Haemophilus influenzae = assay: Antibacterial activity against Haemophilus influenzae ATCC 49247 assessed as reduction in bacterial growth by CLSI based broth microdilution method; type: functional

Row | SMILES | MIC (Streptococcus pneumoniae) | MIC (Escherichia coli) | solubility thermodynamic [1] | MIC (Staphylococcus aureus) | MIC (Haemophilus influenzae)
1 | Cc1nc2c(=O)n(C3CC3)c3cc(N4CCC(O)C4)c(F)cc3c2o1 (stereo not drawn) | 64 µg/mL (≈ 186 µM) | 64 µg/mL (≈ 186 µM) |  | 32 µg/mL (≈ 93.2 µM) | 4 µg/mL (≈ 11.6 µM)
2 | Cc1nc2c(=O)n(C3CC3)c3cc(N4CCC(N)C4)c(F)cc3c2o1 (stereo not drawn) | 8 µg/mL (≈ 23.4 µM) | 1 µg/mL (≈ 2.92 µM) |  | 2 µg/mL (≈ 5.84 µM) | 1 µg/mL (≈ 2.92 µM)
3 | Cc1nc2c(=O)n(C3CC3)c3c(Cl)c(N4CCC(CN(C)C)C4)c(F)cc3c2o1 (stereo not drawn) | 2 µg/mL (≈ 4.77 µM) | 4 µg/mL (≈ 9.55 µM) | 1190 µg/mL (≈ 2850 µM) | 1 µg/mL (≈ 2.39 µM) | 16 µg/mL (≈ 38.2 µM)

More lines, now with the values ahead:

Row | MIC (Streptococcus pneumoniae) | MIC (Escherichia coli) | solubility thermodynamic [1] | MIC (Staphylococcus aureus) | MIC (Haemophilus influenzae) | SMILES
4 | 4 µg/mL (≈ 9.59 µM) | 2 µg/mL (≈ 4.8 µM) | 1060 µg/mL (≈ 2550 µM) | 2 µg/mL (≈ 4.8 µM) | 8 µg/mL (≈ 19.2 µM) | Cc1nc2c(=O)n(C3CC3)c3c(Cl)c(N4CC5CCCNC5C4)c(F)cc3c2o1 (stereo not drawn)
5 | 4 µg/mL (≈ 10.9 µM) | 4 µg/mL (≈ 10.9 µM) | 1200 µg/mL (≈ 3240 µM) | 2 µg/mL (≈ 5.43 µM) | 2 µg/mL (≈ 5.43 µM) | Cc1nc2c(=O)n(C3CC3)c3cc(N4CC5CNCC5C4)c(F)cc3c2o1 (stereo not drawn)
